The source of these data is ChEMBL document CHEMBL5370606, “Diterpenoids from Euphorbia fischeriana with Kv1.3 Inhibitory Activity” (J Nat Prod, 2023).

For data set [1], the target named is T1, Potassium voltage-gated channel subfamily A member 3 (Homo sapiens, UniProt P22001). Kind of data set: Inhibition of Kv1.3 (unknown origin) expressed in HEK293 cells at 30 uM at -90 mV holding potential by automated patch-clamp technique relative to control. The format is cell-based.
Data set [2] deals with T2, hERG (KCNH2) (Homo sapiens, UniProt Q12809). Description: Inhibition of human ERG expressed in HEK293 cells at 30 uM at -80 mV holding potential by whole-cell patch clamp method. The note with it: HEK293 cells that express hERG. It is filed as toxicity, cell-based. A general note: Patch clamp records ionic current or voltage across a cell membrane.
The subject of the next data set is HEK293. Description: Cytotoxicity against HEK293 cells. It is filed as toxicity, cell-based. The settings on record: human.
Data set [3] deals with T1, Potassium voltage-gated channel subfamily A member 3. Kind of data set: Inhibition of Kv1.3 (unknown origin) expressed in HEK293 cells at 10 uM at -90 mV holding potential by automated patch-clamp technique relative to control. It is filed as cell-based.
Data set [4] addresses T2, hERG (KCNH2). Kind of data set: Inhibition of human ERG expressed in HEK293 cells at 10 uM at -80 mV holding potential by whole-cell patch clamp method. It is filed as toxicity, cell-based. The settings on record: HEK293 cells that express hERG.
In data set [5] the target is T1, Potassium voltage-gated channel subfamily A member 3. Kind of data set: Inhibition of Kv1.3 (unknown origin) expressed in HEK293 cells at -90 mV holding potential by automated patch-clamp technique. The format is cell-based.
The target of data set [6] is Voltage-gated inwardly rectifying potassium channel KCNH2 (Homo sapiens, UniProt Q12809). Description: Inhibition of human ERG expressed in HEK293 cells at -80 mV holding potential by whole-cell patch clamp method. It is filed as toxicity, cell-based.
The species entered for another data set is Homo sapiens. Kind of data set: Selectivity index, ratio of IC50 for human ERG expressed in HEK293 cells to IC50 for Kv1.3 (unknown origin) expressed in HEK293 cells. It is filed as cell-based.

T2 sequence (Q12809 whole entry): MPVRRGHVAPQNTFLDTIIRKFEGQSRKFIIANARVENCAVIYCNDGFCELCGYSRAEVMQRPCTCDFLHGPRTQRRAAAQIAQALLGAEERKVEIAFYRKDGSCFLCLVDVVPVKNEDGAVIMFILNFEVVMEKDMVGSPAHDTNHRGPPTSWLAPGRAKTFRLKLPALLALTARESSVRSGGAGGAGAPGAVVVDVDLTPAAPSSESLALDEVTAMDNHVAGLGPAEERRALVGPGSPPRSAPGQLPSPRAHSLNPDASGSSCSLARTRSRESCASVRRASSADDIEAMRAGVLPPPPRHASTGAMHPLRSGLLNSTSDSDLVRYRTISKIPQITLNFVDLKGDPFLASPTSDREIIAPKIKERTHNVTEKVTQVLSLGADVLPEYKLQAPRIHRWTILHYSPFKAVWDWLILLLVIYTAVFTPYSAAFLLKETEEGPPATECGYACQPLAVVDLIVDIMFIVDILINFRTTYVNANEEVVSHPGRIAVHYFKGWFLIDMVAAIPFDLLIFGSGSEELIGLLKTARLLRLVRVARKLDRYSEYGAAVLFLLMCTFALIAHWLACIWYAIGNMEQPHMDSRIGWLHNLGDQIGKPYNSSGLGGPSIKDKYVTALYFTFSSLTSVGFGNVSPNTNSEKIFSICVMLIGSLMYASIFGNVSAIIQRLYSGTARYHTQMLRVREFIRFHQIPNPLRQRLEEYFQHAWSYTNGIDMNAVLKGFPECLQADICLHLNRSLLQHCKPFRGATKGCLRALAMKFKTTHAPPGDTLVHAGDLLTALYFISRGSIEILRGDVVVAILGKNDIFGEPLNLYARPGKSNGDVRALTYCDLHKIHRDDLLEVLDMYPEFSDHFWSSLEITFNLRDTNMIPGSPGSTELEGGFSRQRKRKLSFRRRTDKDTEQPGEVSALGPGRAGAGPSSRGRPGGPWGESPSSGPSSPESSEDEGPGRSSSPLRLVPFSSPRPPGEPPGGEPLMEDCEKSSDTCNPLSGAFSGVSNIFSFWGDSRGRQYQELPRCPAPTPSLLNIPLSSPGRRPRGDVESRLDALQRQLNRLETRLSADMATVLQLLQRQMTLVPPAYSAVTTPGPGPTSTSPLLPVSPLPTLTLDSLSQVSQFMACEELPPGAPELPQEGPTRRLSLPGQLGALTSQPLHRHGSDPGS
T1 sequence (P22001 whole entry): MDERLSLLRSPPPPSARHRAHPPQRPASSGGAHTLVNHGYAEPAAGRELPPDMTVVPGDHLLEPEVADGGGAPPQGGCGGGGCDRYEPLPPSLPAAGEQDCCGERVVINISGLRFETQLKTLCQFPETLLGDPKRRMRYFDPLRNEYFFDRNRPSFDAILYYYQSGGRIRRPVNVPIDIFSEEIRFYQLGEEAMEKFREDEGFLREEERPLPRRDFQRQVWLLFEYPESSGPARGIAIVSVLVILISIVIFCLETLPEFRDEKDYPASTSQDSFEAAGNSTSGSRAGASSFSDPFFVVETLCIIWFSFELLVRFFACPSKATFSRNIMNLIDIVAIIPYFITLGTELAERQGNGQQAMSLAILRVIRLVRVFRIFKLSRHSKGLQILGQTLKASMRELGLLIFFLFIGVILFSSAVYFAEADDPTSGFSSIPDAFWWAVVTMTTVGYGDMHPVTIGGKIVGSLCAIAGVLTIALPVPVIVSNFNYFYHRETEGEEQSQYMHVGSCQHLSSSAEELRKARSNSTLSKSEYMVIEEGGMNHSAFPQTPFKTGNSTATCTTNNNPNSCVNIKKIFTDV
Voltage-gated inwardly rectifying potassium channel KCNH2, sequence (Q12809 whole entry): as the sequence (Q12809 whole entry) above

By inhibition is commonly meant the percentage by which the read-out fell short of the control. Low readings indicate little suppression, high ones strong suppression. With `CC(=O)OCC1=C[C@@H]2C(=O)[C@]3(C=C(C)[C@H](O)[C@@]3(O)[C@@H]1O)[C@H](C)C[C@@H]1[C@H]2C1(C)C`, in data set [1], the inhibition turned out to be 12.5%. At hERG (KCNH2) [2], this compound came in with an inhibition at 30 µM of 23.3%. Further, in the data set with HEK293, the Activity entry was “Non-Toxic”.
On to `CC(=O)O[C@@H]1[C@@H](C)/C=C/C(C)(C)C(=O)C[C@@H](O)/C(C)=C/[C@H]2[C@@H](OC(=O)c3ccccc3)[C@H](C)C[C@]12OC(C)=O`, for which the inhibition in data set [1] was determined as 84.2%; in data set [3], 59.8%. Besides, testing at 30 µM against hERG (KCNH2) [2] gave an inhibition of 75.4%. Moreover, at hERG (KCNH2) [4], at 10 µM the inhibition was 44.6%. For the same compound, the Activity result in the data set with HEK293 is on record as “Non-Toxic”.
With `CC(=O)O[C@]12C[C@@H](C)[C@H](O)[C@@H]1/C=C(\C)[C@H](O)C[C@@H]1[C@@H](/C=C(\C)C2=O)C1(C)C`, the inhibition in data set [1] came to 70.6%; in data set [3], 33.5%. In addition, in the data set on HEK293, the Activity result is listed as “Non-Toxic”.
For `CC(=O)O[C@]12C[C@@H](C)[C@H](O)[C@@H]1/C=C(\C)[C@H](O)C[C@H]1[C@@H](/C=C(\C)C2=O)C1(C)C` the same measures were 67.5%, 21.7% and “Non-Toxic”.
The compound `CC1=C2C=C3CC[C@@H]4C(C)(C)C(=O)CC[C@@]4(C)[C@]3(O)C[C@H]2OC1=O` came in with an inhibition in data set [1] of 17.2%. For the same compound, the Activity result with HEK293 was “Non-Toxic”.
On the same counts, the results for `C=C1C[C@@]23CC[C@@H]4C(C)(C)[C@H](O)CC[C@@]4(C)[C@@H]2C[C@@H]1[C@@H](O)C3=O` are 10.4% and “Non-Toxic”.
For `Fc1ccc([C@@H]2CCNC[C@H]2COc2ccc3c(c2)OCO3)cc1` [PAROXETINE], in data set [1], the inhibition was determined as 35.1%. Moreover, the Activity entry with HEK293 was “Non-Toxic”.
In the case of `CC(=O)O[C@@H]1[C@@H](C)/C=C/C(C)(C)C(=O)C[C@@H](OC(C)=O)/C(C)=C/[C@H]2[C@@H](OC(=O)c3ccccc3)[C@H](C)C[C@]12O`, the inhibition in data set [1] amounted to 72%; in data set [3], 30.2%. Further, the Activity result in the data set on HEK293 is “Non-Toxic”.
Regarding `CC1(C)C(=O)CC[C@]2(C)[C@@H]1CC[C@@]13CC[C@@H](C[C@H]12)[C@](O)(CO)C3`, the inhibition in data set [1] was found to be 7.1%. For the same compound, the Activity result with HEK293 is listed as “Non-Toxic”.
Regarding `CC(=O)O[C@@H]1CC(=O)C(C)(C)/C=C/[C@@H](C)[C@@H](O)[C@@]2(OC(C)=O)C[C@@H](C)[C@H](OC(=O)c3ccccc3)[C@@H]2/C=C/1C`, the inhibition in data set [1] was 86.5%; in data set [3], 62.2%. For the same compound, the inhibition at 30 µM against hERG (KCNH2) [2] turned out to be 60.2%. On hERG (KCNH2) [4], this compound came in with an inhibition at 10 µM of 36.9%. Moreover, the Activity entry with HEK293 is “Non-Toxic”.
Take `CCC/C=C\C=C\C(=O)O[C@@H]1C[C@H]2[C@@H](/C=C(\C)C(=O)[C@@]3(OC(C)=O)C[C@@H](C)[C@H](O)[C@@H]3/C=C/1C)C2(C)C`: the inhibition was 77.7% in data set [1] and 39.8% in data set [3]. The Activity result in the data set on HEK293 is “Non-Toxic”.
For `C/C1=C\[C@H]2[C@@H](OC(=O)c3ccccc3)[C@H](C)C[C@]2(O)[C@H](O)[C@@H](C)/C=C/C(C)(C)C(=O)C[C@H]1O` the same measures were 83.5%, 43.5% and “Non-Toxic”.
Take `C=C1C[C@@]23CC[C@@H]4C(C)(C)C(=O)CC[C@@]4(C)[C@@H]2C[C@@H]1[C@@H](O)C3=O`: the inhibition in data set [1] came out at 32.3%. This compound also gave an inhibition at 30 µM against hERG (KCNH2) [2] of 24.5%. Also, in the data set with HEK293, the Activity entry was “Non-Toxic”.
For `CC1=C2C=C3CC[C@@H]4C(C)(C)[C@H](O)CC[C@@]4(C)[C@]3(O)C[C@H]2OC1=O`, the inhibition in data set [1] was found to be 21.2%. Besides, the Activity entry in the data set with HEK293 is “Non-Toxic”.
Regarding `CC(=O)O[C@]12C[C@@H](C)[C@H](O)[C@@H]1[C@H]1O[C@]1(C)[C@H](O)C[C@H]1[C@@H](/C=C(\C)C2=O)C1(C)C`, the figures for the inhibition in data set [1] and in data set [3] were 75.1% and 39.2%, respectively. Besides, the Activity entry in the data set on HEK293 is listed as “Non-Toxic”.
In the case of `CC1=C2C(=C[C@H]3[C@]4(C)CC[C@@H](O)C(C)(C)[C@H]4CC[C@]34O[C@H]24)OC1=O`, the inhibition in data set [1] came out at 14.5%. Moreover, the Activity result in the data set with HEK293 is reported as “Non-Toxic”.
Take `CC1=C2C=C3CC[C@@H]4C(C)(C)C(=O)[C@H](O)[C@@]4(C)[C@@H]3C[C@H]2OC1=O`: the inhibition in data set [1] stood at 24.4%. At hERG (KCNH2) [2], this compound yielded an inhibition at 30 µM of 19.9%. In addition, in the data set on HEK293, the Activity result is listed as “Non-Toxic”.
The term IC50 denotes the concentration that gives 50% inhibition. Read a high IC50 as weaker potency in that assay. Take `CC(=O)O[C@]12C[C@@H](C)[C@H](OC(=O)c3ccccc3)[C@@H]1/C=C(\C)[C@H](O)C[C@H]1[C@@H](/C=C(\C)C2=O)C1(C)C`: the inhibition in data set [1] was 81.2%; in data set [3], 55.6%. The inhibition at 30 µM against hERG (KCNH2) [2] stood at 40.9%. Besides, the half-maximal inhibitory concentration (IC50) is 4.3 µM in data set [5] and > 30 µM in data set [6]. Also, the Ratio IC50 in the data set listed under Homo sapiens is > 7. The Activity result in the data set on HEK293 is on record as “Non-Toxic”.
`CC(=O)O[C@H]1[C@@H](C)/C=C/C(C)(C)C(=O)CC(=O)/C(C)=C/[C@H]2[C@@H](OC(=O)c3ccccc3)[C@H](C)C[C@@]21O`: the inhibition in data set [1] was 77.5%; in data set [3] it was 42.9%. For the same compound, the Activity result in the data set with HEK293 was “Non-Toxic”.
In turn, `CC1=C2C=C3CC[C@@H]4C(C)(C)[C@H](O)C(=O)C[C@@]4(C)[C@@H]3C[C@H]2OC1=O` registered an inhibition in data set [1] of 20.4%. The Activity entry in the data set with HEK293 is “Non-Toxic”.
In the case of `COC(=O)CCC(=O)O[C@@H]1C[C@H]2[C@@H](/C=C(\C)C(=O)[C@@]3(OC(C)=O)C[C@@H](C)[C@H](O)[C@@H]3/C=C/1C)C2(C)C`, the inhibition in data set [1] amounted to 89.4%; in data set [3] it was 47.6%. The same compound returned an inhibition at 30 µM on hERG (KCNH2) [2] of 49.7%. At hERG (KCNH2) [4], this compound showed an inhibition at 10 µM of 29.7%. For the same compound, the Activity entry with HEK293 is on record as “Non-Toxic”.
With `CC1(C)[C@H](O)CC[C@]2(C)[C@@H]1CC[C@@]13CC[C@@H](C[C@H]12)[C@](O)(CO)C3`, the inhibition in data set [1] is 21%. Further, the Activity entry in the data set on HEK293 was “Non-Toxic”.
With `CC(=O)O[C@@H]1[C@@H](C)/C=C/C(C)(C)C(=O)C[C@@H](O)/C(C)=C/[C@H]2[C@@H](OC(=O)c3ccccc3)[C@H](C)C[C@]12O`, the inhibition is 69.3% in data set [1] and 28.7% in data set [3]. Moreover, the Activity result in the data set on HEK293 is given as “Non-Toxic”.
